According to patent US9815831B2, “3,5-disubstituted-3H-imidazo[4,5-B]pyridine and 3,5-disubstituted-3H-[1,2,3]triazolo[4,5-B] pyridine compounds as modulators of c-Met protein kinases” (Rhizen Pharmaceuticals SA, priority 2012, dated 2017):
Where two headings read alike, the source gives them in different places.

How the values were obtained:
[1] = target: T1, human recombinant Met kinase (Homo sapiens, UniProt P08581); test: Colorimetric determination of c-Met kinase activity (HTScan Met Kinase Assay Kit); format: biochemical; details: for inhibition at 0.1 µM: 100 nM (cells without *), read-out: c-Met Enzyme % inhibition @ 100 nM
T1 construct: purchased Cell Signalling Technology, Beverly, Mass
Outline: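 Human recombinant Met kinase was preincubated with compound for 5 min at room temperature, then reacted with ATP and biotinylated peptide for 30 min; EDTA stop. Phosphopeptide captured on streptavidin and detected with phospho-tyrosine mAb and europium anti-mouse IgG by time-resolved fluorescence (340/615 nm). Reported as % inhibition or IC50.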

MKN-45 = test: Inhibition of MKN-45 proliferation (MTT); format: cell-based, human; details: Homo sapiens, MKN-45 proliferation; for inhibition at 0.1 µM: 100 nM, read-out: MKN45 % inhibition @ 100 nM; for GI50: read-out: MKN45 GI50
Outline: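 High-Met human gastric adenocarcinoma MKN-45 cells plated on day 1 and exposed to compound from day 2. Viability measured by MTT dye reduction on day 5; output given as % inhibition at 100 nM and GI50.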

[2] = target: T1, human recombinant Met kinase; test: Colorimetric determination of c-Met kinase activity (HTScan Met Kinase Assay Kit); format: biochemical; details: read-out: c-Met Enzyme IC50

T1 sequence (P08581 25-1390): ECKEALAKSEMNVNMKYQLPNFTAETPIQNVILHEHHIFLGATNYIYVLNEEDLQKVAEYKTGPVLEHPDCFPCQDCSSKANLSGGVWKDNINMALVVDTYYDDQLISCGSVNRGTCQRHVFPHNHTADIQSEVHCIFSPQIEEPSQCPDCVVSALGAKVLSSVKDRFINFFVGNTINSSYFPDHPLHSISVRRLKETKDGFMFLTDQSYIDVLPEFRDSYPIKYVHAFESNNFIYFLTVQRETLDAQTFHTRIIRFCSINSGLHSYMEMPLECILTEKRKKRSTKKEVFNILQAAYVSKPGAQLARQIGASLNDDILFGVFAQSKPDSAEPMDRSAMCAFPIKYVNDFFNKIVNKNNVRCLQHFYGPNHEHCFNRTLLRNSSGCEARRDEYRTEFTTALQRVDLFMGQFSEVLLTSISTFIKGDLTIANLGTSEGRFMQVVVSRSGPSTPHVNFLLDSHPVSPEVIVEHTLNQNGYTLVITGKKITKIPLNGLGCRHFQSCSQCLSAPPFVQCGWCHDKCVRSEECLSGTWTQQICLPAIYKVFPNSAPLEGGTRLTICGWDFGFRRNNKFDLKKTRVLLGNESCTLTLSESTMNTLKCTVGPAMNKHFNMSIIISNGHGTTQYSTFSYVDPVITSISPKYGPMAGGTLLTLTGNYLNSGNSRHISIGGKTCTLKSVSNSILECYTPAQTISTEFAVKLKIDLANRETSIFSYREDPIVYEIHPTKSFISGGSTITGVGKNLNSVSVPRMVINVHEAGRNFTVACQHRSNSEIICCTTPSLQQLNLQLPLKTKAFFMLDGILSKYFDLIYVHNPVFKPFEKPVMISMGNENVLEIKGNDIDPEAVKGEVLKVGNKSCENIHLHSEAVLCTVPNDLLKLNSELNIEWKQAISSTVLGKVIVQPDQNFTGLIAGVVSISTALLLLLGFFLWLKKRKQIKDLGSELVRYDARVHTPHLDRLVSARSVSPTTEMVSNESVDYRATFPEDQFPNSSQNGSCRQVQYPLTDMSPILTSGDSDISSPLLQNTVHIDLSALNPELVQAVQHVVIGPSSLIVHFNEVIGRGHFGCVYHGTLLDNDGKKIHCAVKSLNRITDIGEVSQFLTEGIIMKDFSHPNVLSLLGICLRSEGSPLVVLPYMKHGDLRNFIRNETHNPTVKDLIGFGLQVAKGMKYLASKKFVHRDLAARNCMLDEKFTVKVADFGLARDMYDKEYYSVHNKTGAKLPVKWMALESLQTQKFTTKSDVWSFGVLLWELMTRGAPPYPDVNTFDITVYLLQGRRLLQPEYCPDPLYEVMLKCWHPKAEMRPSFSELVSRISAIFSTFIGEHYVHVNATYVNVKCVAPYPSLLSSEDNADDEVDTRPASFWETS

| inhibition at 0.1 µM ([1]; Table 4A) | melting point | inhibition at 0.1 µM ([1]; Table 4C) | SMILES | further results |
| --- | --- | --- | --- | --- |
| 75 to 100% | 175 to 177 °C | – | C[C@H](N)C(=O)OCCONC(=O)c1ccc(-c2ccc3nnn(Cc4ccc5ncccc5c4)c3n2)cc1Cl [Example 13, (S)-2-(2-chloro-4-(3-(quinolin-6-ylmethyl)-3H-[1,2,3]triazolo[4,5-b]pyridin-5-yl)benzamidooxy)ethyl 2-aminopropanoate] | – |
| 75 to 100% | 208 to 210 °C | – | Cc1ccc2cc(Cn3nnc4ccc(-c5cc(F)c(C(=O)NOCCO)c(F)c5)nc43)ccc2n1 [Example 21, 2,6-difluoro-N-(2-hydroxyethoxy)-4-(3-((2-methylquinolin-6-yl)methyl)-3H-[1,2,3]triazolo[4,5-b]pyridin-5-yl) benzamide] | inhibition at 0.1 µM (MKN-45; MKN-45, Table 4A): < 25%; IC50 ([2]; Table 4A): 25 to 50 nM |
| 75 to 100% | 168 to 170 °C | – | CC(=O)OCCONC(=O)c1ccc(-c2ccc3nnn(Cc4ccc5ncccc5c4)c3n2)cc1Cl [Example 11, 2-(2-chloro-4-(3-(quinolin-6-ylmethyl)-3H-[1,2,3]triazolo[4,5-b]pyridin-5-yl)benzamidooxy)ethyl acetate] | – |
| – | 158 to 160 °C | 75 to 100% | Cc1cc(-c2ccc3ncn(Cc4c(F)cc5ncccc5c4F)c3n2)ccc1C(N)=O [Example 1027, 4-[3-(5,7-Difluoro-quinolin-6-ylmethyl)-3H-imidazo[4,5-b]pyridin-5-yl]-2-methyl-benzamide] | inhibition at 0.1 µM (MKN-45; MKN-45, Table 4C): 75 to 100% |
| – | 151 to 158 °C | – | C[C@@H](O)CNC(=O)c1ccc(-c2ccc3ncn(Cc4ccc5ncccc5c4)c3n2)cc1F [Example 109, (R)-2-fluoro-N-(2-hydroxypropyl)-4-(3-(quinolin-6-ylmethyl)-3H-imidazo[4,5-b]pyridin-5-yl)benzamide] | inhibition at 0.1 µM ([1]; Table 4B): 75 to 100% |
| 75 to 100% | 202 to 205 °C | – | O=C(NOCCO)c1c(F)cc(-c2ccc3nnn(Cc4ccc5ncsc5c4)c3n2)cc1F [Example 19, 4-(3-(benzo[d]thiazol-6-ylmethyl)-3H-[1,2,3]triazolo[4,5-b]pyridin-5-yl)-2,6-difluoro-N-(2-hydroxyethoxy)benzamide] | inhibition at 0.1 µM (MKN-45; MKN-45, Table 4A): 25 to 50%; GI50 (MKN-45; MKN-45, Table 4A): 50 to 100 nM; IC50 ([2]; Table 4A): 25 to 50 nM |
| – | 160 to 162 °C | – | Cc1cc(-c2ccc3nnn(Cc4ccc5c(ccc[n+]5[O-])c4)c3n2)ccc1C(=O)NOCC(C)(C)O [Example 41, N-(2-Hydroxy-2-methyl-propoxy)-2-methyl-4-[3-(1-oxy-quinolin-6-ylmethyl)-3H-[1,2,3]triazolo[4,5-b]pyridin-5-yl]-benzamide] | – |
| 75 to 100% | 110 to 112 °C | – | O=C(CNC(=O)c1ccccc1)OCCONC(=O)c1ccc(-c2ccc3nnn(Cc4ccc5ncccc5c4)c3n2)cc1Cl [Example 16, 2-(2-chloro-4-(3-(quinolin-6-ylmethyl)-3H-[1,2,3]triazolo[4,5-b]pyridin-5-yl)benzamidooxy)ethyl 2-benzamidoacetate] | – |
| 50 to 75% | 194 to 196 °C | – | O=C(NOCCO)c1ccc(-c2ccc3nnn(Cc4ccc5ncsc5c4)c3n2)cc1Cl [Example 18, 4-(3-(benzo[d]thiazol-6-ylmethyl)-3H-[1,2,3]triazolo[4,5-b]pyridin-5-yl)-2-chloro-N-(2-hydroxyethoxy)benzamide] | inhibition at 0.1 µM (MKN-45; MKN-45, Table 4A): 25 to 50%; GI50 (MKN-45; MKN-45, Table 4A): 50 to 100 nM; IC50 ([2]; Table 4A): 25 to 50 nM |
| – | 243 to 245 °C | 75 to 100% | NC(=O)c1ccc(-c2ccc3ncn(Cc4ccc5ncccc5c4)c3n2)cc1C(F)(F)F [Example 1024, 4-(3-Quinolin-6-ylmethyl-3H-imidazo[4,5-b]pyridin-5-yl)-2-trifluoromethyl-benzamide] | GI50 (MKN-45; MKN-45, Table 4C): 100 to 250 nM; IC50 ([2]; Table 4C): < 25 nM |
| < 25% | 219 to 222 °C | – | Cc1ccc2cc(Cn3nnc4ccc(-c5ccc(C(=O)NOCCO)c(Cl)c5)nc43)ccc2n1 [Example 17, 2-chloro-N-(2-hydroxyethoxy)-4-(3-((2-methylquinolin-6-yl)methyl)-3H-[1,2,3]triazolo[4,5-b]pyridin-5-yl) benzamide] | – |
| – | 239 to 241 °C | 25 to 50% | NC(=O)c1ccc(-c2ccc3ncn(Cc4cc5cccnc5cc4F)c3n2)cc1C(F)(F)F [Example 1026, 4-[3-(7-Fluoro-quinolin-6-ylmethyl)-3H-imidazo[4,5-b]pyridin-5-yl]-2-trifluoromethyl-benzamide] | – |
| – | 166 to 169 °C | – | C[C@H](O)CNC(=O)c1ccc(-c2ccc3ncn(Cc4ccc5ncccc5c4)c3n2)cc1F [Example 110, (S)-2-fluoro-N-(2-hydroxypropyl)-4-(3-(quinolin-6-ylmethyl)-3H-imidazo[4,5-b]pyridin-5-yl)benzamide] | inhibition at 0.1 µM ([1]; Table 4B): 75 to 100% |
| – | – | 75 to 100% | Cc1cc(-c2ccc3ncn(Cc4cc5cccnc5cc4F)c3n2)ccc1C(N)=O [Example 1025, 4-[3-(7-Fluoro-quinolin-6-ylmethyl)-3H-imidazo[4,5-b]pyridin-5-yl]-2-methyl-benzamide] | GI50 (MKN-45; MKN-45, Table 4C): 50 to 100 nM; IC50 ([2]; Table 4C): < 25 nM |
| 75 to 100% | 115 to 118 °C | – | CC(C)C(=O)OCCONC(=O)c1ccc(-c2ccc3nnn(Cc4ccc5ncccc5c4)c3n2)cc1Cl [Example 15, 2-(2-chloro-4-(3-(quinolin-6-ylmethyl)-3H-[1,2,3]triazolo[4,5-b]pyridin-5-yl)benzamidooxy)ethyl isobutyrate] | – |
| 75 to 100% | 148 to 150 °C | – | CC(C)(CO)ONC(=O)c1ccc(-c2ccc3nnn(Cc4ccc5ncccc5c4)c3n2)cc1Cl [Example 40, 2-chloro-N-(1-hydroxy-2-methylpropan-2-yloxy)-4-(3-(quinolin-6-ylmethyl)-3H-[1,2,3]triazolo[4,5-b]pyridin-5-yl)benzamide] | – |
| 75 to 100% | 130 to 133 °C | – | CC(C)(C)C(=O)OCCONC(=O)c1ccc(-c2ccc3nnn(Cc4ccc5ncccc5c4)c3n2)cc1Cl [Example 14, 2-(2-chloro-4-(3-(quinolin-6-ylmethyl)-3H-[1,2,3]triazolo[4,5-b]pyridin-5-yl)benzamidooxy)ethyl pivalate] | – |
| – | – | – | C/C(=N\NC(N)=S)c1ccc2nnn(Cc3cc4cccnc4cc3F)c2n1 [Example 57, 2-(1-(3-((7-fluoroquinolin-6-yl)methyl)-3H-[1,2,3]triazolo[4,5-b]pyridin-5-yl)ethylidene)hydrazinecarbothioamide] | inhibition ([1]; Table 4A, cells marked *: tested @ 300 nM, read-out: c-Met Enzyme % inhibition): 75 to 100%; inhibition at 0.1 µM (MKN-45; MKN-45, Table 4A): 50 to 75%; GI50 (MKN-45; MKN-45, Table 4A): 25 to 50 nM; IC50 ([2]; Table 4A): 25 to 50 nM |
| – | 219 to 221 °C | < 25% | CNC(=O)c1ccc(-c2ccc3ncn(Cc4ccc5ncccc5c4)c3n2)cn1 [Example 1031, 5-(3-Quinolin-6-ylmethyl-3H-imidazo[4,5-b]pyridin-5-yl)-pyridine-2-carboxylic acid methylamide] | – |
| – | 118 to 120 °C | < 25% | CNC(=O)c1ccc(-c2ccc3ncn(Cc4ccc5ncccc5c4)c3n2)cc1C [Example 1030, 2,N-Dimethyl-4-(3-quinolin-6-ylmethyl-3H-imidazo[4,5-b]pyridin-5-yl)-benzamide] | – |
